From PMC10721786, “Development of a potent benzonitrile-based inhibitor of glutaminyl-peptide cyclotransferase-like protein (QPCTL) with antitumor efficacy” (Signal Transduction and Targeted Therapy, 2023)

How the values were obtained:
B16F10 cells [1] = experiment: In vitro phagocytosis of B16F10 cells by mouse macrophages; assay type: cell-based
Description: (§1) Eight-week-old C57BL/6 wild-type mice were obtained from Shanghai Slaccas Laboratory Animal Co., Ltd.. To obtain bone marrow derived macrophage (BMDM), femora and tibiae were flushed with ice-cold PBS, and erythrocytes were lysed with RBC lysis buffer. Then bone marrow cells were cultured in DMEM medium with 10 % FBS and 100 U/ mL penicillin, and 100 μg/ mL streptomycin in the presence of 50 ng/ mL mouse M-CSF (Macrophage-Colony Stimulating Factor) (PeproTech), 0.1 mM Sodium pyruvate (Gibco, Cat. # 11360-70) and 10 mM HEPES (Gibco, Cat. # 15630-080) for 7 days.
(§2) Phagocytosis assay were conducted as previously described. Briefly, macrophages were plated 1 x 10^5 cells per well in a 48-well plate in complete DMEM medium, supplemented with M-CSF overnight before the experiment. Cancer cells were stained with 5 μM CFSE at 37 °C for 10 min. Each phagocytotic reaction reported in this work was performed by co-culture of target cells and macrophages for 4 hours at 37 °C. Macrophages were identified with APC-labeled anti-F4/80 (Biolegend, Cat. # 123116), and flow cytometry (BD FACSCanto II, San Jose, CA) was performed. Phagocytosis was calculated as the percentage of CFSE^+F4/80^+ cells (Q2) among CFSE^+ cells (Q2+Q3): phagocytosis (%) = [Q2 / (Q2+ Q3)] x100 %.

Raji cells = experiment: In vitro phagocytosis of Raji cells by mouse macrophages; assay type: cell-based, human
Description: as §1, §2

CD47/SIRPα = experiment: Cell surface binding of human or mouse SIRPα protein to tumor cells (Raji, B16F10), flow cytometry; assay type: cell-based
Description: (§3) Binding to cell surface CD47 was assessed by staining cells with fluorochrome-labeled antibodies clone CC2C6 (BioLegend, Cat. # 323102) and B6H12 (Abcam, Cat. # ab134485) to human CD47 at a dilution of 1:100 in PBS containing 1% FBS (FACS buffer) for 30 min on ice, while protected from light. SIRPα binding to CD47 was assessed by incubating cells with PE labeled recombinant human SIRPα/ CD172α Protein, Fc tag (ACRO Biosystems, Cat. # SIA-HP252) or PE labeled mouse SIRPα Protein, His tag (ACRO Biosystems, Cat. # SIA-MP2H6) for 1 hour on ice, while protected from light.

pGlu-CD47 [2] = experiment: Flow cytometry of pGlu-CD47 (hCD47-CC2C6 binding) in HEK293T cells; assay type: cell-based, human
Description: as §3

CD47 = experiment: Overall cell surface CD47 (hCD47-B6H12 binding) in HEK293T and Raji cells; assay type: cell-based, human; details: 100 nM, 48 h
Description: as §3

Raji and B16F10 cells = experiment: Cell viability (CCK-8) in Raji and B16F10 cells; assay type: cell-based; details: Fig. S5
Description: Raji cells (5000 cells/well), B16F10 cells (3000 cells/well) and BMDM (10000 cells/well) were plated in 96-well and cell viability was examined at the time points shown in the figures, with the help of Cell Counting Kit 8 (CCK-8) (Share-bio, Cat. # B-CCK8) according to the manufacturer’s recommendations.

BMDM cells = experiment: Cell viability and phagocytosis ability of BMDM; assay type: cell-based, mouse
B16F10 cells [3] = experiment: Tumor challenge: B16F10 tumors in C57BL/6 mice; assay type: in vivo; details: B16F10 in C57BL/6 mice, anti-CD3 antibody 200 µg/mouse, QP5038 25 mg/kg daily
Description: C57BL/6 mice were obtained from Shanghai Slaccas Laboratory Animal Co., Ltd.. Male mice were implanted subcutaneously with 1 x 10^^6 B16F10 cells resuspended in 100μL of DMEM on Day 0. Anti-PD-1 (Clone RMP1-14, BioXCell, Cat. # BE0146) or mouse IgG2a isotype control (Clone 2A3, BioXCell, Cat. # BE0089) was dosed at 80 µg per mouse intraperitoneally starting on day 12 after tumor implantation, followed by a once-a-week regimen. QPCTL inhibitor was intraperitoneally administered at 25 mg/kg once a day. Tumors were measured daily, and mice were sacrificed 24 days after tumor challenge. Tumor volumes were measured in two dimensions (length and width) and the volume was calculated using the formula, tumor size (mm^3) = (length × width^2) × 0.5.
Briefly, male mice were implanted subcutaneously with 5 x 10^5 B16F10 cells resuspended in 100 μL of DMEM on Day 0. Anti-PD-1 antibody or mouse IgG2a isotype control was dosed at 80 µg per mouse intraperitoneally starting on day 6 after tumor implantation, followed by a once-a-week regimen. QPCTL inhibitors was intraperitoneally administered at 25 mg/kg once a day since day 6. Tumors were measured every three days, and mice were sacrificed on day 15. […]
Tumor challenge with T cell depletion. […] Animal weights and tumor volumes were measured twice weekly throughout the study. […] Data were acquired on flow cytometry analyzer and analyzed using Flowjo software.

pGlu-CD47 [4] = experiment: Flow cytometry of pGlu-CD47 (hCD47-CC2C6 binding) in Raji cells; assay type: cell-based, human; details: 100 nM, 48 h
Description: as §3

Cn1cncc1C1CCN(c2c(C#N)cccc2-c2ccc(F)nc2)CC1 [QP5038]
phagocytosis of B16F10 cells (B16F10 cells [1]; 10 μM inhibitor 48 h, in combination with TA99, mouse macrophages): significantly boosted | flow cytometry quadrant Q1 (B16F10 cells [1]; 48 h, 10 µM): 34.7 | flow cytometry quadrant Q2 (CFSE+F4/80+ cells) (B16F10 cells [1]; 48 h, 10 µM): 5.39 | flow cytometry quadrant Q3 (B16F10 cells [1]; 48 h, 10 µM): 59.0 | flow cytometry quadrant Q4 (B16F10 cells [1]; 48 h, 10 µM): 0.89 | efficiency on phagocytosis compared with SEN177 and PQ912 (B16F10 cells [1]; B16F10 and Raji cells, 10 μM 48 h, Fig. 1h–k, Fig. S6): much better than that of SEN177 and PQ912 | phagocytosis of Raji cells (Raji cells; 10 μM inhibitor 48 h, synergized with rituximab, mouse macrophages): significantly boosted | flow cytometry quadrant Q1 (Raji cells; 48 h, 10 µM): 26.4 | flow cytometry quadrant Q2 (CFSE+F4/80+ cells) (Raji cells; 48 h, 10 µM): 2.74 | flow cytometry quadrant Q3 (Raji cells; 48 h, 10 µM): 70.1 | flow cytometry quadrant Q4 (Raji cells; 48 h, 10 µM): 0.70 | binding of human or mouse SIRPα protein to cell surface (CD47/SIRPα): significantly reduced | inhibitory effect on CD47 pyroglutamation compared to SEN177 and PQ912 (pGlu-CD47 [2]; 100 nM, 48 h): superior inhibitory effects | IC50 (pGlu-CD47 [2]; Homo sapiens, HEK-293T, treatment 48 h, read-out: IC50, dose-dependent inhibition of pGlu-CD47): 3.3 ± 0.5 nM | overall cell surface levels of CD47 (CD47): did not alter | cell viability (Raji and B16F10 cells): did not markedly impair | cell viability of macrophages (BMDM cells; Fig. S8a): did not attenuate | phagocytotic ability of macrophages (BMDM cells; apoptotic Jurkat cells, Fig. S8b): did not attenuate | enhancement of anti-PD-1 antibody-mediated tumor inhibition under T cell depletion (B16F10 cells [3]): blocked the enhancement | inhibitory effect on CD47 pyroglutamation compared to SEN177 and PQ912 (pGlu-CD47 [4]): superior inhibitory effects
